In ChEMBL document CHEMBL4270551, “Biological evaluation and structure-activity relationships of imidazole-based compounds as antiprotozoal agents” (Eur J Med Chem, 2018):
pIC50: −log10 of the molar value. Calls of active or inactive are those of the source. The rule behind the calls is not given here.

Key:
[1] = Cytotoxicity against rat L6 cells after 72 hrs by alamar blue staining based fluorescence assay; format: cell-based
Plasmodium falciparum = assay: Antiprotozoal activity against erythrocytic stage of chloroquine and pyrimethamine resistant Plasmodium falciparum K1 assessed as reduction in [3H]-hypoxanthine incorporation preincubated for 24 hrs followed by [3H]-hypoxanthine addition measured after 24 hrs by scintillation counting method; format: functional, organism-based
[2] = Selectivity index, ratio of CC50 for rat L6 cells to IC50 for erythrocytic stage of chloroquine and pyrimethamine resistant Plasmodium falciparum K1; format: toxicity; settings: read-out: Ratio CC50/IC50
[3] = system: Trypanosoma brucei rhodesiense; assay: Antiprotozoal activity against Trypanosoma brucei rhodesiense STIB900 trypomastigote after 72 hrs by Alamar Blue assay; format: functional, organism-based; settings: STIB900, 72 h
[4] = Selectivity index, ratio of CC50 for rat L6 cells to IC50 for Leishmania donovani MHOM/ET/67/L82 axenic amastigotes; format: toxicity; settings: read-out: Ratio CC50/IC50
Trypanosoma cruzi [5] = assay: Antitrypanosomal activity against Trypanosoma cruzi Tulahuen strain C2C4 amastigote forms infected in rat L6 cells after 96 hrs by CPRG/Nonidet reagent based photometric method; format: functional, organism-based; settings: Tulahuen strain C2C4, L6, 96 h
[6] = Selectivity index, ratio of CC50 for rat L6 cells to IC50 for Trypanosoma cruzi Tulahuen strain C2C4 amastigote forms infected in rat L6 cells; format: toxicity, cell-based; settings: read-out: Ratio CC50/IC50
Leishmania donovani = assay: Antileishmanial activity against Leishmania donovani MHOM/ET/67/L82 axenic amastigotes after 72 hrs by alamar blue staining based fluorescence assay; format: functional, organism-based; settings: MHOM/ET/67/L82, 72 h
[7] = Selectivity index, ratio of CC50 for rat L6 cells to IC50 for Trypanosoma brucei rhodesiense STIB900 trypomastigote; format: toxicity; settings: read-out: Ratio CC50/IC50
[8] = biological target: Sterol 14-alpha demethylase (Trypanosoma cruzi (strain CL Brener)) (UniProt Q7Z1V1); assay: Binding affinity to Trypanosoma cruzi CYP51 at 5 to 10 uM by 96-well based UV-vis spectroscopic method
Sterol 14-alpha demethylase (Trypanosoma cruzi (strain CL Brener)), sequence (Q7Z1V1 whole entry, looked up): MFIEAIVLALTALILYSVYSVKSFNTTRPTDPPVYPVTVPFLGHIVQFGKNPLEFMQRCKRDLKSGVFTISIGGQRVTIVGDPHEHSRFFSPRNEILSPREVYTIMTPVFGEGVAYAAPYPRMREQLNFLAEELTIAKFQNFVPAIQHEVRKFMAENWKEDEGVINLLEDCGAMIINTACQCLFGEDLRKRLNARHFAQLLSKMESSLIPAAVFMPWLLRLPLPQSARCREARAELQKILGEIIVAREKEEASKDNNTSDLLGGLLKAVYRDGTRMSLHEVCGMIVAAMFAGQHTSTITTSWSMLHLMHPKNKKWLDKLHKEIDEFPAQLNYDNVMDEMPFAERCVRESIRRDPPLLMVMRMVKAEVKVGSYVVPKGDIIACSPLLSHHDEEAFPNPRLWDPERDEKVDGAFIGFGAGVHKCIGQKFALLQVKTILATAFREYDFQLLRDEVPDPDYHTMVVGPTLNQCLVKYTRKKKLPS

Trypanosoma cruzi [9] = assay: Antitrypanosomal activity against luciferase-expressing Trypanosoma cruzi CL Brener infected in Balb/c mouse assessed as reduction in parasitemia at 2.5 mg/kg, ip bid for 4 days by bioluminescence assay relative to control; format: functional; set-up: scale not given: the % may be the effect or the level left
Mus musculus [10] = assay: Toxicity in Balb/c mouse infected with Trypanosoma cruzi CL Brener assessed as hunched posture at 25 mg/kg, ip bid for 4 days measured during compound dosing; format: organism-based; settings: in vivo, 96 h
Mus musculus [11] = assay: Toxicity in Balb/c mouse infected with Trypanosoma cruzi CL Brener assessed as weight loss at 25 mg/kg, ip bid for 4 days measured during compound dosing; format: organism-based; settings: in vivo, 96 h
Mus musculus [12] = assay: Toxicity in Balb/c mouse infected with Trypanosoma cruzi CL Brener assessed as lack of grooming at 25 mg/kg, ip bid for 4 days measured during compound dosing; format: organism-based; settings: in vivo, 96 h
[13] = biological target: Sterol 14-alpha demethylase (Trypanosoma cruzi (strain CL Brener)) (UniProt Q7Z1V1); assay: Binding affinity to Trypanosoma cruzi CYP51 by quartz cuvette based UV-vis spectroscopic method
Mus musculus [14] = assay: Toxicity in Balb/c mouse infected with Trypanosoma cruzi CL Brener assessed as reduction in mobility at 25 mg/kg, ip bid for 4 days measured during compound dosing; format: organism-based; settings: in vivo, 96 h
Trypanosoma cruzi [15] = assay: Potency index, ratio of benznidazole IC50 to test compound IC50 for Trypanosoma cruzi Tulahuen strain C2C4 amastigote forms infected in rat L6 cells; format: functional

| Structure (SMILES) | CC50 at 72 h [1] | pIC50 (Plasmodium falciparum) | selectivity ratio [2] | pIC50 [3] | selectivity ratio [4] | pIC50 (Trypanosoma cruzi [5]) | selectivity ratio [6] | pIC50 (Leishmania donovani) | selectivity ratio [7] | Activity [8] | Activity (Trypanosoma cruzi [9]) | Activity (Mus musculus [10]) | Activity (Mus musculus [11]) | Activity (Mus musculus [12]) | Activity [13] | Activity (Mus musculus [14]) | Ratio IC50 (Trypanosoma cruzi [15]) |
| --- | --- | --- | --- | --- | --- | --- | --- | --- | --- | --- | --- | --- | --- | --- | --- | --- | --- |
| CSc1ccc(-c2c[nH]cc2C(c2ccc(Cl)cc2Cl)n2ccnc2)cc1 (stereo unspecified) | 7.22 µM | 6.62 | 30 | 4.80 | 1 | 7.37 | 168 | 5.29 |  |  |  |  |  |  |  |  |  |
| O=C(Cn1ccnc1[N+](=O)[O-])NCc1ccccc1 [BENZNIDAZOLE] |  |  |  |  |  | 5.78 |  |  |  |  |  |  |  |  |  |  |  |
| Clc1ccc(C(c2c[nH]cc2-c2cccc3ccccc23)n2ccnc2)c(Cl)c1 (stereo unspecified) | 12.3 µM | 6.48 | 37 | 4.92 | 6 | 7.02 | 128 | 5.72 | 1 |  |  |  |  |  |  |  |  |
| Clc1ccc(-c2c[nH]cc2C(c2ccc(Cl)cc2)n2ccnc2)cc1 (stereo unspecified) | 4.83 µM | 6.89 | 37 | 4.80 | 1 | 7.24 | 85 | 5.15 |  |  |  |  |  |  |  |  |  |
| Cc1ccc(C(c2ccn(-c3ccc(Cl)cc3)c2)n2ccnc2)cc1 (stereo unspecified) | 42.6 µM | 5.60 | 17 | 4.27 | 3 | 5.76 | 25 | 4.90 |  |  |  |  |  |  |  |  |  |
| FC(F)(F)c1ccc(-c2c[nH]cc2C(c2ccc(Cl)cc2Cl)n2ccnc2)cc1 (stereo unspecified) | 9.4 µM | 6.85 | 67 | 4.95 |  | 7.30 | 188 | 4.92 |  |  |  |  |  |  |  |  |  |
| Fc1ccc(C(c2ccn(-c3ccc(F)cc3)c2)n2ccnc2)cc1 (stereo unspecified) | 87.1 µM | 5.35 | 20 | 4.36 | 2 | 5.34 | 19 | 4.34 | 2 |  |  |  |  |  |  |  |  |
| Fc1ccc(C(c2ccn(-c3ccc(Cl)cc3)c2)n2ccnc2)cc1 (stereo unspecified) | 63.1 µM | 5.40 | 16 | 4.44 | 4 | 5.43 | 17 | 4.80 | 2 |  |  |  |  |  |  |  |  |
| CC(C)(C)c1ccc(-c2c[nH]cc2C(c2ccc(Cl)cc2Cl)n2ccnc2)cc1 (stereo unspecified) | 22.9 µM | 6.42 | 60 | 4.38 | 3 | 4.89 | 2 | 5.16 |  |  |  |  |  |  |  |  |  |
| Clc1ccc(-c2c[nH]cc2C(c2ccc(Cl)cc2Cl)n2ccnc2)cc1 (stereo unspecified) | 9.61 µM | 6.80 | 60 | 4.76 | 3 | 7.46 | 275 | 5.42 |  | Active |  |  |  |  |  |  |  |
| Clc1ccc(C(c2c[nH]cc2-c2ccc(-c3ccccc3)cc2)n2ccnc2)c(Cl)c1 (stereo unspecified) | > 202 µM | < 4.96 |  | 4.75 |  | 4.49 |  | 4.91 |  |  |  |  |  |  |  |  |  |
| O=[N+]([O-])c1ccc(-c2c[nH]cc2C(c2ccc(Cl)cc2Cl)n2ccnc2)cc1 (stereo unspecified) | 16.9 µM | 6.32 | 35 | 5.25 | 2 | 5.49 | 5 | 5.11 | 3 |  |  |  |  |  |  |  |  |
| Cn1cc(-c2ccc(Cl)cc2)c(C(c2ccc(Cl)cc2Cl)n2ccnc2)c1 (stereo unspecified) | 5.23 µM | 6.77 | 31 | 4.44 | 1 | 8.70 | 2620 | 5.37 |  | Active | 98.5% | Non-Toxic | Non-Toxic | Non-Toxic | Active | Non-Toxic | 825 |
| COc1cc([C@@H]2c3cc4c(cc3[C@H](O)[C@H]3COC(=O)[C@H]23)OCO4)cc(OC)c1OC [PODOFILOX] | 0.007 µM |  |  |  |  |  |  |  |  |  |  |  |  |  |  |  |  |
| CCCCCCCCCCCCCCCCOP(=O)([O-])OCC[N+](C)(C)C [MILTEFOSINE] |  |  |  |  |  |  |  | 6.25 |  |  |  |  |  |  |  |  |  |
| Clc1ccc(C(c2c[nH]cc2-c2ccc(-c3ccncc3)cc2)n2ccnc2)c(Cl)c1 (stereo unspecified) | 15.5 µM | 6.54 | 53 | 5.01 | 2 | 5.62 | 6 | 5.12 | 2 |  |  |  |  |  |  |  |  |
| N#Cc1ccc(-c2c[nH]cc2C(c2ccc(Cl)cc2Cl)n2ccnc2)cc1 (stereo unspecified) | 15 µM | 6.18 | 23 | 4.93 | 2 | 5.00 | 2 | 5.06 | 1 |  |  |  |  |  |  |  |  |
| c1ccc(C(c2ccn(-c3ccccc3)c2)n2ccnc2)cc1 (stereo unspecified) | 80.8 µM | 5.38 | 20 | 4.46 | 6 | 5.41 | 21 | 4.84 | 2 |  |  |  |  |  |  |  |  |
| Nc1nc(N)nc(Nc2ccc([As]3SCC(CO)S3)cc2)n1 (stereo unspecified) [MELARSOPROL] |  |  |  | 8.06 |  |  |  |  |  |  |  |  |  |  |  |  |  |
| Cc1ccc(C(c2ccn(-c3ccc(F)cc3)c2)n2ccnc2)cc1 (stereo unspecified) | 60.6 µM | 5.66 | 28 | 4.80 | 2 | 5.53 | 21 | 4.56 | 4 |  |  |  |  |  |  |  |  |
| Fc1ccc(-n2ccc(C(c3ccccc3)n3ccnc3)c2)cc1 (stereo unspecified) | 104 µM | 5.27 | 19 | 4.69 | 3 | 5.21 | 17 | 4.50 | 5 |  |  |  |  |  |  |  |  |
| Clc1ccc(-c2c[nH]cc2C(c2ccc(Cl)cc2Cl)n2ccnc2)c(Cl)c1 (stereo unspecified) | 9.86 µM | 6.74 | 55 | 4.98 | 8 | 7.47 | 290 | 5.92 |  | Active |  |  |  |  |  |  |  |
| Fc1ccc(-n2ccc(C(c3ccc(Cl)cc3)n3ccnc3)c2)cc1 (stereo unspecified) | 47.5 µM | 5.50 | 15 | 4.77 | 5 | 5.48 | 14 | 4.98 | 3 |  |  |  |  |  |  |  |  |
| Clc1ccc(C(c2c[nH]cc2-c2ccc(Cl)c(Cl)c2)n2ccnc2)c(Cl)c1 (stereo unspecified) | 3.64 µM | 6.85 | 26 | 4.90 | 1 | 7.68 | 173 | 5.34 |  | Active |  |  |  |  |  |  |  |
